Measurements reported in patent US5514662A, “Use of amphotericin B derivatives as protease inhibitors” (priority 1991, dated 1996).
Like-named read-outs stand apart in the source and are kept apart here.

Tests used:
[1] = biological target: T1, trypsin (Bos taurus, UniProt P00760); experiment: Inhibition of trypsin; format: biochemical
T1 sequence (P00760 24-246): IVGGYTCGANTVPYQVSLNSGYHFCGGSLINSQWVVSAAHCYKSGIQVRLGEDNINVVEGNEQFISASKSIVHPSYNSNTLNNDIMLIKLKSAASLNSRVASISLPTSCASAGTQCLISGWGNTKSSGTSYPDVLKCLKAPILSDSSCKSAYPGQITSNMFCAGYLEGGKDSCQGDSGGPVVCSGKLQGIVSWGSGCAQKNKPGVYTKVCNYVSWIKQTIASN

[2] = system: HIV; settings: cited from earlier work
[3] = system: HIV-1; settings: T cells infected in vitro; cited from earlier work
[4] = system: HIV-1; settings: cited from earlier work
[5] = system: HRV14; experiment: Cytopathogenic effect of HRV14 in HeLa-Ohio cells; format: cell-based; settings: 0.03 to 100 μM, added 1 hour after infection
Experimental: HeLa-Ohio cells cultured until they have become confluent, are infected with a suspension of HRV14 virus. The cytopathogenic effect of the virus is evaluated by staining the cells with a 0.5% solution of crystal violet and 20% of methanol; after rinsing the plates with water, the optical density is read at 550 nm.
For the rest of the experiment, the cells are infected with a viral suspension with a titre such that 50% of the cells are killed after 3 days on control cells not receiving any treatment. 1 hour after the infection, the test product (AmB or DABF-AmB) is added at concentrations ranging from 0.03 to 100 μM. The percentage inhibition of the cytopathogenic effect is determined as follows:
OD (treated infected cells)-OD (infected cells)!
OD (healthy cells)-OD (infected cells)!
The effect of the addition of DABF-AmB was tested at various times: preincubation of the cells with DABF-AmB before the viral infection; addition of DABF-AmB at the time of the infection; addition of DABF-AmB after the infection, during the period of viral proliferation.

[6] = Cytotoxicity in HeLa-Ohio cells; format: cell-based, human; settings: human, hela-ohio cells; read-out: concentration above which cytotoxic
[7] = patients; cited from earlier work
[8] = system: DNA and RNA viruses containing a lipid envelope; settings: in vitro; cited from earlier work
[9] = read-out: % inhibition of trypsin relative to a control without inhibitor

C[C@@H]1[C@H](O)[C@@H](C)/C=C/C=C/C=C/C=C/C=C/C=C/C=C/[C@H](O[C@@H]2O[C@H](C)[C@@H](O)[C@H](NC(=O)C(N)CC(=O)O)[C@@H]2O)C[C@@H]2O[C@](O)(C[C@@H](O)C[C@@H](O)[C@H](O)CC[C@@H](O)C[C@@H](O)CC(=O)O[C@H]1C)C[C@H](O)[C@H]2C(=O)O (some centres unmarked) [N-aspartyl-AmB]
inhibition at 1 µM ([1]; 1 μM, FIG. 1, read-out: % inhibition of trypsin relative to a control without inhibitor): ~40%

Cc1cn([C@H]2C[C@H](N=[N+]=[N-])[C@@H](CO)O2)c(=O)[nH]c1=O [AZT, 3'-azido-2',3'-dideoxythymidine]
side effects of treatment ([2]; human, in vivo): severe side effects of treatment with AZT, in particular a degeneration of bone marrow | clinical condition of AIDS patients [2]: improvement of the clinical condition of patients

COC(=O)[C@H]1[C@@H]2C[C@@H](O[C@@H]3O[C@H](C)[C@@H](O)[C@H](N)[C@@H]3O)/C=C/C=C/C=C/C=C/C=C/C=C/C=C/[C@H](C)[C@@H](O)[C@@H](C)[C@H](C)OC(=O)C[C@H](O)C[C@H](O)CC[C@@H](O)[C@H](O)C[C@H](O)C[C@](O)(C[C@@H]1O)O2 [AME, methyl ester of amphotericin B]
inhibition of cell death and of viral expression [3]: inhibitors of cell death and of viral expression | capacity of preincubated HIV-infected lymphocytes to form syncytia with uninfected cells ([4]; HIV-infected lymphocytes preincubated): increased | inhibition of infection by preincubation of healthy lymphocytes prior to infection ([4]; lymphocytes preincubated): inhibits the infection | inhibition at 1 µM [1, 9]: ~10%

OC[C@@H]1CC[C@H](n2cnc3c(O)ncnc32)O1 [ddI, 2',3'-dideoxyinosine]
clinical condition of AIDS patients [2]: improvement of the clinical condition of patients

C[C@@H]1[C@H](O)[C@@H](C)/C=C/C=C/C=C/C=C/C=C/C=C/C=C/[C@H](O[C@@H]2O[C@H](C)[C@@H](O)[C@H](N)[C@@H]2O)C[C@@H]2O[C@](O)(C[C@@H](O)C[C@@H](O)[C@H](O)CC[C@@H](O)C[C@@H](O)CC(=O)O[C@H]1C)C[C@H](O)[C@H]2C(=O)O [AmB, amphotericin B]
antiviral activity on HRV14 (in words) [5]: no detectable antiviral activity | MCC [6]: > 5 µM | side effects of prolonged treatment [7]: frequent side effects such as fever or serious nephrotoxicity | inhibition of trypsin (in words) [1]: a certain inhibitory activity on trypsin | inhibition at 10 µM ([1]; 10^-5 M): 30% | inhibition at 1 µM ([1]; 10^-6 M, read-out: % of inhibition of trypsin): 10% | inhibition at 0.1 µM ([1]; 10^-7 M): 5% | inhibition at 1 µM [1, 9]: ~10% | activity against enveloped DNA and RNA viruses and herpes virus strains [8]: active in vitro

N N'-(2,4'-methylmorpholino)-N"-ethylguanyl!amphotericin B [MCG]
cell-protecting properties [4]: does not possess, according to this study, cell-protecting properties | direct antiviral action ([4]; preincubation with the virus): has a direct antiviral action

CNC[C@H](O)[C@@H](O)[C@H](O)[C@H](O)CO [N-methylglucamine, reference compound]
antiviral activity on HRV14 (in words) [5]: no effect on the virus
